In ChEMBL document CHEMBL3885861, “Open TG-GATES”:

Organism: Rattus norvegicus
Test: Open TG-GATES - Regimen: Daily Repeat
Format: toxicity, organism-based, Sprague-Dawley
Design: regimen Daily Repeat, gender Male, age 6 weeks
Settings: in vivo, po, 300 mg/kg, route gavage, dose level Middle; for APTT / Bas / Eos / Fbg / Hb / Ht / Lym / MCH / MCHC / MCV / Mono / Neu / PT / Plat / RBC / Ret / WBC: tissue Blood; for KIDNEY_L / KIDNEY_R / KIDNEY_TOTAL: tissue Kidney; for LIVER: tissue Liver; for A/G / ALP / ALT / AST / BUN / CRE / Ca / Cl / DBIL / GLC / IP / K / LDH / Na / PL / RALB / TBIL / TC / TG / TP / gamma-GTP: tissue Plasma

`O=C(N[C@H](CO)[C@H](O)c1ccc([N+](=O)[O-])cc1)C(Cl)Cl` [CHLORAMPHENICOL] was tested, and the TERMINAL_BW (72 h, time 3 day) was 251.2 g, the APTT (72 h, time 3 day) was 16.2 s and the Bas (72 h, time 3 day) was 0%. It also gave an Eos (72 h, time 3 day) of 1%, a Fbg (72 h, time 3 day) of 294.6 mg/dL and a Hb (72 h, time 3 day) of 13.3 g/dL. It also gave a Ht (72 h, time 3 day) of 40.8%, a Lym (72 h, time 3 day) of 83.4% and an MCH (72 h, time 3 day) of 21.2 pg. The MCHC (72 h, time 3 day) was 32.6%, the MCV (72 h, time 3 day) was 65.1 fL and the Mono (72 h, time 3 day) was 3.4%. The Neu (72 h, time 3 day) was 11.6%, the PT (72 h, time 3 day) was 14.4 s and the Plat (72 h, time 3 day) was 128.6 x10_4/uL. For the same compound, the RBC (72 h, time 3 day) was 627.6 x10_4/ul, the Ret (72 h, time 3 day) was 4.4% and the WBC (72 h, time 3 day) was 77.4 x10_2/uL. For the same compound, the KIDNEY_L (72 h, time 3 day) was 1.1 g, the KIDNEY_R (72 h, time 3 day) was 1.1 g and the KIDNEY_TOTAL (72 h, time 3 day) was 2.1 g. The LIVER (72 h, time 3 day) was 12.1 g, the A/G (72 h, time 3 day) was 0.9 and the ALP (72 h, time 3 day) was 1601.8 IU/L. It also gave an ALT (72 h, time 3 day) of 49.4 IU/L, an AST (72 h, time 3 day) of 72.8 IU/L and a BUN (72 h, time 3 day) of 16.6 mg/dL. It also gave a CRE (72 h, time 3 day) of 0.2 mg/dL, a Ca (72 h, time 3 day) of 10.9 mg/dL and a Cl (72 h, time 3 day) of 105.6 meq/L. For the same compound, the DBIL (72 h, time 3 day) was 0.01 mg/dL, the GLC (72 h, time 3 day) was 169.2 mg/dL and the IP (72 h, time 3 day) was 7.6 mg/dL. The K (72 h, time 3 day) was 4.2 meq/L, the LDH (72 h, time 3 day) was 84.2 IU/L and the Na (72 h, time 3 day) was 141.2 meq/L. It also gave a PL (72 h, time 3 day) of 150.4 mg/dL, an RALB (72 h, time 3 day) of 2.6 g/dL and a TBIL (72 h, time 3 day) of 0.052 mg/dL. It also gave a TC (72 h, time 3 day) of 88.4 mg/dL, a TG (72 h, time 3 day) of 66.6 mg/dL and a TP (72 h, time 3 day) of 5.6 g/dL. It also gave a gamma-GTP (72 h, time 3 day) of 1 IU/L, a TERMINAL_BW ([…], time 7 day) of 277.3 g and a TERMINAL_BW ([…], time 14 day) of 349.1 g. For the same compound, the TERMINAL_BW ([…], time 28 day) was 411.6 g, the APTT ([…], time 7 day) was 16.9 s and the Bas ([…], time 7 day) was 0%. For the same compound, the Eos ([…], time 7 day) was 1%, the Fbg ([…], time 7 day) was 324 mg/dL and the Hb ([…], time 7 day) was 13.7 g/dL. For the same compound, the Ht ([…], time 7 day) was 42.3%, the Lym ([…], time 7 day) was 78.2% and the MCH ([…], time 7 day) was 20.5 pg. It also gave an MCHC ([…], time 7 day) of 32.4%, an MCV ([…], time 7 day) of 63.3 fL and a Mono ([…], time 7 day) of 3.6%. For the same compound, the Neu ([…], time 7 day) was 17%, the PT ([…], time 7 day) was 14.5 s and the Plat ([…], time 7 day) was 120.6 x10_4/uL. It also gave an RBC ([…], time 7 day) of 668.6 x10_4/ul, a Ret ([…], time 7 day) of 4.8% and a WBC ([…], time 7 day) of 66.9 x10_2/uL. For the same compound, the APTT ([…], time 14 day) was 14.9 s, the Bas ([…], time 14 day) was 0% and the Eos ([…], time 14 day) was 1.4%. It also gave a Fbg ([…], time 14 day) of 307 mg/dL, a Hb ([…], time 14 day) of 14.2 g/dL and a Ht ([…], time 14 day) of 43.7%. It also gave a Lym ([…], time 14 day) of 84.8%, an MCH ([…], time 14 day) of 20.5 pg and an MCHC ([…], time 14 day) of 32.5%. The MCV ([…], time 14 day) was 63.1 fL, the Mono ([…], time 14 day) was 2.2% and the Neu ([…], time 14 day) was 11.4%. The PT ([…], time 14 day) was 14.8 s, the Plat ([…], time 14 day) was 123.5 x10_4/uL and the RBC ([…], time 14 day) was 692.8 x10_4/ul. It also gave a Ret ([…], time 14 day) of 4.7%, a WBC ([…], time 14 day) of 80 x10_2/uL and an APTT ([…], time 28 day) of 15.7 s. For the same compound, the Bas ([…], time 28 day) was 0%, the Eos ([…], time 28 day) was 1.2% and the Fbg ([…], time 28 day) was 296.2 mg/dL. The Hb ([…], time 28 day) was 15.1 g/dL, the Ht ([…], time 28 day) was 44.3% and the Lym ([…], time 28 day) was 86.8%. It also gave an MCH ([…], time 28 day) of 19.7 pg, an MCHC ([…], time 28 day) of 34.1% and an MCV ([…], time 28 day) of 57.8 fL. It also gave a Mono ([…], time 28 day) of 1%, a Neu ([…], time 28 day) of 10% and a PT ([…], time 28 day) of 14.7 s. The Plat ([…], time 28 day) was 110.4 x10_4/uL, the RBC ([…], time 28 day) was 768.8 x10_4/ul and the Ret ([…], time 28 day) was 2.1%. It also gave a WBC ([…], time 28 day) of 69.9 x10_2/uL, a KIDNEY_L ([…], time 7 day) of 1.2 g and a KIDNEY_R ([…], time 7 day) of 1.2 g. For the same compound, the KIDNEY_TOTAL ([…], time 7 day) was 2.4 g, the KIDNEY_L ([…], time 14 day) was 1.3 g and the KIDNEY_R ([…], time 14 day) was 1.3 g. The KIDNEY_TOTAL ([…], time 14 day) was 2.6 g, the KIDNEY_L ([…], time 28 day) was 1.6 g and the KIDNEY_R ([…], time 28 day) was 1.5 g. It also gave a KIDNEY_TOTAL ([…], time 28 day) of 3.1 g, an LIVER ([…], time 7 day) of 14 g and an LIVER ([…], time 14 day) of 16.9 g. For the same compound, the LIVER ([…], time 28 day) was 18.5 g, the A/G ([…], time 7 day) was 0.9 and the ALP ([…], time 7 day) was 1464.2 IU/L. For the same compound, the ALT ([…], time 7 day) was 56.8 IU/L, the AST ([…], time 7 day) was 72.8 IU/L and the BUN ([…], time 7 day) was 15 mg/dL. The CRE ([…], time 7 day) was 0.2 mg/dL, the Ca ([…], time 7 day) was 11.3 mg/dL and the Cl ([…], time 7 day) was 106 meq/L. It also gave a DBIL ([…], time 7 day) of 0.02 mg/dL, a GLC ([…], time 7 day) of 181.2 mg/dL and an IP ([…], time 7 day) of 7.9 mg/dL. It also gave a K ([…], time 7 day) of 4 meq/L, an LDH ([…], time 7 day) of 58.4 IU/L and a Na ([…], time 7 day) of 144.8 meq/L. For the same compound, the PL ([…], time 7 day) was 148.8 mg/dL, the RALB ([…], time 7 day) was 2.7 g/dL and the TBIL ([…], time 7 day) was 0.054 mg/dL. The TC ([…], time 7 day) was 74 mg/dL, the TG ([…], time 7 day) was 102.4 mg/dL and the TP ([…], time 7 day) was 5.7 g/dL. For the same compound, the gamma-GTP ([…], time 7 day) was 1 IU/L, the A/G ([…], time 14 day) was 0.8 and the ALP ([…], time 14 day) was 1504.6 IU/L. For the same compound, the ALT ([…], time 14 day) was 51.8 IU/L, the AST ([…], time 14 day) was 75.2 IU/L and the BUN ([…], time 14 day) was 17.4 mg/dL. The CRE ([…], time 14 day) was 0.2 mg/dL, the Ca ([…], time 14 day) was 11.3 mg/dL and the Cl ([…], time 14 day) was 105.2 meq/L. For the same compound, the DBIL ([…], time 14 day) was 0.024 mg/dL, the GLC ([…], time 14 day) was 198.2 mg/dL and the IP ([…], time 14 day) was 7.1 mg/dL. It also gave a K ([…], time 14 day) of 4 meq/L, an LDH ([…], time 14 day) of 66.8 IU/L and a Na ([…], time 14 day) of 144 meq/L. For the same compound, the PL ([…], time 14 day) was 137.6 mg/dL, the RALB ([…], time 14 day) was 2.6 g/dL and the TBIL ([…], time 14 day) was 0.052 mg/dL. It also gave a TC ([…], time 14 day) of 63.4 mg/dL, a TG ([…], time 14 day) of 93.6 mg/dL and a TP ([…], time 14 day) of 5.8 g/dL. It also gave a gamma-GTP ([…], time 14 day) of 1 IU/L, an A/G ([…], time 28 day) of 0.8 and an ALP ([…], time 28 day) of 1176.8 IU/L. For the same compound, the ALT ([…], time 28 day) was 43 IU/L, the AST ([…], time 28 day) was 63.8 IU/L and the BUN ([…], time 28 day) was 15 mg/dL. It also gave a CRE ([…], time 28 day) of 0.2 mg/dL, a Ca ([…], time 28 day) of 10.8 mg/dL and a Cl ([…], time 28 day) of 105 meq/L. The DBIL ([…], time 28 day) was 0.024 mg/dL, the GLC ([…], time 28 day) was 172.8 mg/dL and the IP ([…], time 28 day) was 6.5 mg/dL. For the same compound, the K ([…], time 28 day) was 3.5 meq/L, the LDH ([…], time 28 day) was 49.2 IU/L and the Na ([…], time 28 day) was 144.6 meq/L. It also gave a PL ([…], time 28 day) of 141 mg/dL, an RALB ([…], time 28 day) of 2.8 g/dL and a TBIL ([…], time 28 day) of 0.064 mg/dL. The TC ([…], time 28 day) was 68 mg/dL, the TG ([…], time 28 day) was 69.4 mg/dL and the TP ([…], time 28 day) was 6.1 g/dL. It also gave a gamma-GTP ([…], time 28 day) of 1.2 IU/L.
